Experimental findings from patent US20250276962A1, “CONTRACEPTIVE COMPOUNDS AND METHODS” (Regents of the University of Minnesota, priority 2021, published 2025) are described below.

≈ marks a conversion by molar mass, not a printed value.

In one series the target is T1, RARα (Homo sapiens, UniProt P10276).
T1 construct: host or cells: unnamed reporter cells
T1 sequence (P10276 1-462): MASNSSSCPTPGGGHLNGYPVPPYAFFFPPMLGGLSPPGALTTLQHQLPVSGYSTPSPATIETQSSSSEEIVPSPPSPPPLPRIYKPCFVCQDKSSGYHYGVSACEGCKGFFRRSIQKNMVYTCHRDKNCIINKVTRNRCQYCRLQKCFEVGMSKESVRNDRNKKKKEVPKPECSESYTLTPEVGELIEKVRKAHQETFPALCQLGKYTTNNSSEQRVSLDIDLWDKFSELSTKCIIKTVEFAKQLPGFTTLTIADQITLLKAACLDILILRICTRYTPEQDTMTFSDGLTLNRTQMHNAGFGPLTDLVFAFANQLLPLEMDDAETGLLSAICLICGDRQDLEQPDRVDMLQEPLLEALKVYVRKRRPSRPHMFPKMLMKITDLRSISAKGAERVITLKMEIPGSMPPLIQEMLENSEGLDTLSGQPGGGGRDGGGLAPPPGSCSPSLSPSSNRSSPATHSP
Nature of the series: Transactivation (luciferase) antagonist assay, RARα. In kind it is cell-based. Conditions: vs EC80 (180 nM) 9-cis-RA, luciferase readout; read-out: RARα Antagonism IC50. The method, then: (§1) Control wells containing cells without added agonist defined the background signal values. […] Cell suspension (30 μL) was added to each well and the assay plate was incubated overnight in a 5% CO2 incubator at 37° C. Luciferase detection reagent (15 μL) was then added and the plate was incubated at RT for 30 minutes. Luminescence was quantified using an EnSpire plate reader (PerkinElmer, Waltham, MA). IC50 values were determined by fitting dose response data using the four-parameter logistic equation in GraphPad Prism 7.0.

The target of a further series is T2, RARγ (Homo sapiens, UniProt P13631).
T2 construct: host or cells: unnamed reporter cells
T2 sequence (P13631 1-454): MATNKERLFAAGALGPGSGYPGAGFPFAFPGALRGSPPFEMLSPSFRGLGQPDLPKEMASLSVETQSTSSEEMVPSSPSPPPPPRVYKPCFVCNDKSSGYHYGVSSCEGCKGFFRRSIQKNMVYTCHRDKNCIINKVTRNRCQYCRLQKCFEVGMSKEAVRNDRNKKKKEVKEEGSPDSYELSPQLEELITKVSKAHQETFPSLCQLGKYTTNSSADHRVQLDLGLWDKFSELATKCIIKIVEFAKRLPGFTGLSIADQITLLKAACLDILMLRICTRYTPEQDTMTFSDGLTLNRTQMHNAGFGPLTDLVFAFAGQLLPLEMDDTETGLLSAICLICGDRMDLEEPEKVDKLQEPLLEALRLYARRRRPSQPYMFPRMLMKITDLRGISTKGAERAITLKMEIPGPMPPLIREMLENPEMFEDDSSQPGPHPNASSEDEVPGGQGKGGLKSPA
Nature of the series: Transactivation (luciferase) antagonist assay, RARγ. Type of series: cell-based. Conditions: vs EC80 (8 nM) ATRA, luciferase readout; read-out: RARγ Antagonism IC50. The method, then: as §1

In a further series the target is T3, RARβ (Homo sapiens, UniProt P10826).
T3 construct: host or cells: unnamed reporter cells
T3 sequence (P10826 1-455): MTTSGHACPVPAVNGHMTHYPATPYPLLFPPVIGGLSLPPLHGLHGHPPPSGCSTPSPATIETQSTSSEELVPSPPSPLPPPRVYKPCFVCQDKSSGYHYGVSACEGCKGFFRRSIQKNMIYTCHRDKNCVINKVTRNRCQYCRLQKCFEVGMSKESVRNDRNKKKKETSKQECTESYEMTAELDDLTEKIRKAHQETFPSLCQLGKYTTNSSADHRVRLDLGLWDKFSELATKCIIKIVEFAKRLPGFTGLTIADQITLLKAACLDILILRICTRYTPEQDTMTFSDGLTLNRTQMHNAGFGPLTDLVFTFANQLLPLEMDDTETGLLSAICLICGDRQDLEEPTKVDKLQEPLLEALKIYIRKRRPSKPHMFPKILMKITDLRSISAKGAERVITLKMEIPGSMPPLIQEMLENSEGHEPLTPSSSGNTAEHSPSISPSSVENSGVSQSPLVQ
Briefly: Transactivation (luciferase) antagonist assay, RARβ. Type of series: cell-based. The following applies: vs EC80 (8 nM) ATRA, luciferase readout; read-out: RARβ Antagonism IC50. Here is the method:
as §1

A short description of series [1]: Solubility in PBS at pH 7.4. In kind it is physicochemical.

The term IC50 denotes the concentration that inhibits the measured activity by half. Regarding `Cc1ccc(C2=CC(C)(C)Oc3ccc(-c4ccc(-c5ccc(C(=O)O)c(F)c5)[nH]4)cc32)cc1`, the half-maximal inhibitory concentration (IC50) at RARα is 100 nM. Same read-out and setting: to `Cc1ccc(C2=CC(C)(C)Oc3ccc(-c4ccc(-c5cc(F)c(C(=O)O)c(F)c5)[nH]4)cc32)cc1` belongs 470 nM; to `COc1cc2c(cc1-c1ccc(-c3ccc(C(=O)O)cc3)[nH]1)C(c1ccc(C)cc1)=CC(C)(C)O2`, 2000 nM. As to `CC1(C)C=C(c2ccccc2)c2cc(-c3ccc(-c4ccc(C(=O)O)cc4)[nH]3)ccc2O1`, the IC50 at RARα was 15 nM; on RARγ it was more than 3.3 µM; on RARβ, more than 3.3 µM. For `Cc1ccc(C2=CC(C)(C)Oc3ccc(-c4ccc(-c5ccc(C(=O)O)c(O)c5)[nH]4)cc32)cc1`, the results for the concentration for half-maximal inhibition (IC50) on RARα, at RARγ and at RARβ were 94 nM, more than 3 µM and more than 3 µM, respectively.

`Cc1ccc(C2=CC(C)(C)Oc3ccc(-c4ccc(-c5ccc(C(=O)O)c(C)c5)[nH]4)cc32)cc1`: the figures for the IC50 on RARα, at RARγ and at RARβ were 87 nM, more than 3 µM and more than 3 µM, respectively. The term solubility denotes the dissolved amount per volume that the medium holds. Low readings indicate little dissolved substance, high ones much dissolved substance. Regarding `CC(=O)[C@H]1CC[C@H]2[C@@H]3CCC4=CC(=O)CC[C@]4(C)[C@H]3CC[C@]12C` [Progesterone, reference compound], the “solubility” value in series [1] amounted to 14.02 µM (≈ 4.41 µg/mL).
